The source of these data is patent US10539552B2, “Compositions and methods for measuring cellular mechanical stress” (The Regents of the University of California, priority 2014, dated 2020).

Test [1] deals with mouse ventricular myocytes. In words: Systolic Ca^2+ transient and myocyte contraction in-Gel (Fluo-4 confocal / Fura-2 ratio, sarcomere detection). As to conditions: for systolic Ca^2+ transient (Fluo-4 confocal): compared to load-free contraction, blebbistatin 10 μM in gel; for peak systolic Ca^2+ transient (Fura-2 ratio), inhibitor effect: L-NPA 5 μM. The format is cell-based. The source says:
Mechanical load effects on the myocyte contraction and systolic Ca^2+ transient. To establish that the diastolic spontaneous Ca^2+ sparks are indeed caused by the mechanical load, we examined the Ca^2+ spark rate in the myocytes contracting under different mechanical loads as shown in FIG. 11G. We also examined the systolic Ca^2+ transient and the myocyte contraction under these conditions of varying loads.
Whole cell Ca^2+ transient measurement using Fura-2 ratiometric method. In order to more precisely measure the whole cell Ca^2+ concentration, we used Fura-2 ratiometric method (40) rather than Fluo-4 single wavelength measurement. Fura-2 loading was done by incubating the cells with 2.5 μM Fura-2/AM and 0.75 μM Pluronic-127 (in 20% DMSO) at room temperature for 30 minutes. After washing out Fura-2/AM, the cells were incubated for an additional 45 minutes, and then used for experiment within 2 hours. An IonOptix system (IonOptix Inc., USA) with a Hyperswitch and mounted on the Olympus X71 inverted microscope with a water immersion fluorescence objective UPlanSPao 40×, 1.15 NA, corrected for the thickness of the No. 1 glass coverslip. The excitation light was generated using a high intensity ARC lamp (Cairn). The Hyperswitch (galvanometer based switching between […] and 380 nm at 500 Hz frequency, using a 340/370d/380 filter cube) was used to deliver dual excitation beams at 340 nm and 380 nm, switching between the two wavelengths. Fura-2 fluorescence emission light was passed through a bandpass filter D510/40m, and then collected in a photomultiplier tube (PMT). The gain of the PMT was set to avoid any saturation and to obtain high fidelity photon count.
The Fura-2 fluorescence emission (F) from the excitation at 340 nm and 380 nm were recorded from the cell. The background fluorescence (BG) at 340 nm and 380 nm wavelengths were obtained in the solution and in the gel without cell. The BG signals were found slightly higher in the gel than in solution, but both were substantially lower than the Fura-2 fluorescence emissions from the cell. The Fura-2 fluorescence ratio, RFura, was calculated after background subtraction.
For measuring the systolic Ca^2+ transient, the cell was first paced to reach steady-state (>2 minutes), and then the Fura-2 fluorescence was recorded for at least 10 beats during steady-state. For SR content measurement, after the cell reaching steady-state the field stimulation was stopped to keep the cell at resting state for 15 seconds; then caffeine at high concentration (20 mM) was applied to rapidly deplete the SR load (FIG. 14A,B). The rapidity of the SR Ca^2+ release was accessed by the rising velocity of the caffeine-induced Ca^2+ transient, and the peak Ca^2+ value was used as an index to measure the SR load. […] Since RyR sensitivity to intra-SR [Ca^2+] is steep, we also acknowledge that small changes in SR Ca^2+ that we could not detect could have functional impact.
Myocyte contraction measurement. Contraction measurement using Fluo-4 confocal image was determined from the confocal x-t linescan by the difference in the positions of the left and right boundaries demarcated by the bright fluo-4 signal and the dimmer signal from the PVA gel or the bathing solution. Myocyte length was calculated by converting the fluorescence signal along each x into a binary vector. Fluorescence values above background plus a threshold were considered 1, otherwise 0. The numbers of “1” pixels was then multiplied by a scaling factor (determined by using a Ronchi ruling with 2.5 spacing) to get the cell shortening in microns. The threshold was set to half of the maximum calcium fluorescence.
Contraction measurement using IonOptix system (IonOptix Co., USA) with sarcomere detection was done by using a high speed camera (Myocam-S, 240 up to 1000 frame/s) the record the sarcomere movement during contraction. […]

For test [2], the system named is mouse ventricular myocytes (wild-type). The test is described as follows: Cell-in-Gel confocal Ca^2+ spark imaging during myocyte contraction under afterload (wild-type). The format is cell-based. As to conditions: wild-type myocytes contracting in Gel7.5%, paced 0.5 Hz, L-NAME 10 mM, L-NPA 5 μM, L-Nio 10 μM, Gp91ds 1 μM, blebbistatin 10 μM. How it is done:
Cell isolation. Wild-type and transgenic mice, 8 weeks old male, were purchased from Jackson Laboratories (USA): C57BL/6J (wild-type), B6.129S4-Nos1tm1Plh/J (NOS1−/−), B6.129P2-Nos3tm1Unca/J (NOS3−/−). Transgenic mouse with R92Q mutation in cardiac troponin T was created in Tardiff s lab (22) and bred in Chen-Izu's lab. A standard enzymatic technique (40) was used to isolate the ventricular myocytes using Worthington collagenase type II and Sigma protease type XIV. All experiments were conducted at 21-22° C.
Cell-in-Gel system. Elastic gel matrix was made of a poly vinyl alcohol (PVA) hydrogel system comprised of underivatized PVA (98 KD) and a tetravalent boronate-PEG crosslinker (12). Freshly isolated myocytes were first suspended in 7% PVA solution; then 7.5% crosslinker solution was added in equal volume (Gel7.5%). Upon mixing, the boronate group crosslinks PVA hydrogel, embedding the cell in the 3D gel matrix. The boronate group also crosslinks the cis-diols of the cell-surface glycans to PVA, thereby tethering the cell surface to the gel. We used Gel7.5% for all the experiments in this study except one group in FIG. 11G using Gel5%.
Confocal imaging of Ca^2+ signals. Myocytes were loaded with Ca^2+ indicator, Fluo-4, and then embedded in the gel. Confocal imaging was performed using standard method (41).
For confocal imaging of the Ca^2+ signals, freshly isolated myocytes were continuously perfused in Tyrode solution containing (in mM): 150 NaCl, 5.4 KCl, 1.2MgCl2, 1 CaCl2, at pH 7.4, loaded with Ca^2+ indicator Fluo-4, and then embedded in the PVA gel. The cell was paced at 0.5 Hz frequency by electrical field stimulation using short (4 ms) depolarization pulses with bipolar switching (switch positive and negative polarity in consecutive stimulus pulses). The platinum electrodes were used in conjunction with continues perfusion of fresh Tyrode solution to maintain constant bath condition (pH, glucose, ionic composition, temperature etc.).
Confocal images were obtained using an Olympus FluoView 1000 Confocal Microscope (inverted configuration) with a water immersion fluorescence objective UPlanSApo 60X, NA1.2, corrected for the thickness of the No. 1 glass coverslip that is used at the bottom of the perfusion chamber. Fluo-4 was excited with 488 nm laser beam (laser power set to 5%), and the emitted fluorescence light was passed through a bandpass filter BA505-605 and collected with a PMT. The PMT voltage, gain, and offset were set to avoid any saturation and to obtain high fidelity images. The line-scan images were obtained using the highest scan speed of 2 μs/pixel.
Ca^2+ sparks were detected automatically using a homemade program based on our spark identification algorithm and adapted for x-t linescans. As in our 2-D program, sparks are identified in two stages. In the first stage, putative sparks are detected based on Cheng et al.'s description and bright but spatially small events were eliminated using the ‘live-or-die’ algorithm described in our previous publication. In the second stage, the putative sparks were classified as sparks or noise based on the statistical sieve as described previously in our publication. This analysis software provides automated and objective (agnostic via statistical sieving) detection and classification of the Ca^2+ signaling events. […]

Test [3] concerns CaMKII. The test is described as follows: In vitro CaMKII activity measurement with Camui FRET sensor in HEK cell lysates. It counts as biochemical. As to conditions: Camui lacking phosphorylation (T286) or oxidation (CM280/281) sites. How it is done:
(§1) In Vitro CaMKII activity measurements with Camui sensor. Design and synthesis of the wild-type, phosphorylation resistant, and oxidation resistant Camui constructs were previously described. HEK293 cells were cultured in Eagle's medium plus 5% fetal bovine serum and penicillin/streptomycin for 24 hour and then transfected with plasmids encoding Camui (or a mutant isoform) using a mammalian transfection kit (Stratagene). After an additional 24 hour, Camui expression was checked by fluorescence microscopy. HEK cells expressing Camui were lysed in Ca^2+-free buffer containing 50 mM Tris-HCl buffer (pH 7.5), 5 mM MgCl2, and protease inhibitors. Fluorescence measurements were performed using a MS SpectraMax plate reading spectrophotometer (Molecular Devices) with excitation and emission slits set to 4 nm, excitation wavelength set to 440 nm, emission wavelengths set to 477 nm (FCFP) and 527 nm (FYFP), respectively. The cytosolic fraction of the transfected HEK cells […] Camui fluorescence was measured in the presence of 10 μM CaM and 200 μM Ca^2+. EGTA 1 mM was used to chelate Ca^2+ and autonomous CaMKII activity was measured in the presence of 1 mM EGTA and either 50 μM or 500 μM SNAP.
(§2) CaMKII activity was known to be increased by auto-phosphorylation and by oxidation. Here we measure the effect of nitric oxide (NO) on CaMKII activity using the FRET-based biosensor Camui which detects conformational changes in CaMKII during activation. To determine whether NO can activate CaMKII, we expressed the CaMKII activity sensor Camui in HEK cells and measured autonomous activation induced by the NO donor SNAP. Camui comprises of full length CaMKII with a CFP/YFP pair on either end of the kinase, which produce substantial FRET in the closed (autoinhibited) state. If autoinhibition is disrupted, either directly by Ca^2+/CaM binding or autonomously by post-translational modification of the kinase, FRET is reduced, resulting in an increase in FCFP/FYFP. […] CaMKII is known to be autonomously activated by T286 phosphorylation and by CM280/281 oxidation. To test whether one or both of these mechanisms were responsible for SNAP-induced CaMKII activation, we repeated the HEK cell experiment using mutant versions of Camui lacking either the phosphorylation (T286) or oxidation (CM280/281) target sites. In both cases, SNAP dependent activation of CaMKII was preserved.

The target in test [4] is T1, CaMKII (Rattus norvegicus, UniProt P11275).
T1 construct: Camui comprises of full length CaMKII with a CFP/YFP pair on either end of the kinase; expressed in transfected cells; host or cells: HEK293 (lysate, cytosolic fraction)
The description is as above. It counts as biochemical. How it is done: as §1, §2

Setting [5] is: myocytes contracting in-Gel, L-Nio 10 μM.

Entries after “also recorded” stand apart in the source; their conditions may differ.

T1 sequence (P11275 whole entry): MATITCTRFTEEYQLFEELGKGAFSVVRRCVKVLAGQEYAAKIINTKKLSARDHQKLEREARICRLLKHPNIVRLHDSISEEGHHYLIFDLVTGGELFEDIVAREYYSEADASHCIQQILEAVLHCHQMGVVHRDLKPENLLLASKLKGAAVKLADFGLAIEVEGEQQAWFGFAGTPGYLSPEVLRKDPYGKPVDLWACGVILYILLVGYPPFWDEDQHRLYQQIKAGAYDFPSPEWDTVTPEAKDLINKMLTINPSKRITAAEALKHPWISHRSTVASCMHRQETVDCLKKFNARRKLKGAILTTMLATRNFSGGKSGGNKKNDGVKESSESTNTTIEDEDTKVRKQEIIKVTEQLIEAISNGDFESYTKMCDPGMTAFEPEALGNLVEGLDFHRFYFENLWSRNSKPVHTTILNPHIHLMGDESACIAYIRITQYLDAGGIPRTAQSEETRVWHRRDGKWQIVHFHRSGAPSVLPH

Turning to `Cc1ccc2c(c1)C(=O)C1(O)CCN(c3ccccc3)C1=N2` (stereo not drawn) [blebbistatin], the “systolic Ca^2+ transient (Fluo-4 confocal)” value in test [1] was “restored the Ca^2+ transient and spark rate to the load-free condition”; in test [1] (listed as Blebbistatin), “restored the Ca^2+ transient to the load-free condition”. Moreover, the “myocyte contraction amplitude (fractional shortening)” value in test [1] (in gel versus load-free, blebbistatin 10 μM) is given as “decoupled cell contraction from Ca^2+ signaling”. For the same compound, the “afterload-induced diastolic spontaneous Ca^2+ sparks, drug effect” value in test [2] is “restored the Ca^2+ transient and spark rate to the load-free condition”; in test [2] (listed as Blebbistatin), “normalization of Ca^2+ spark rate”.
As for `COC(=O)[C@@H](N)CCCNC(=N)N[N+](=O)[O-]` [L-NAME], in test [2], the “afterload-induced diastolic spontaneous Ca^2+ sparks, drug effect” value is on record as “effectively suppressed Ca^2+ sparks”.
With `CC(N)=NCCC[C@H](N)C(=O)O.Cl.Cl` [L-Nio, L-Nio-dihydrochloride], in test [1] (setting [5]), the “peak systolic Ca^2+ transient (Fura-2 ratio), inhibitor effect” value is “reduced the Ca^2+ transient” and the “Tau of the Ca^2+ transient decline” value was “slowed the speed of Ca^2+ transient decline”. The “afterload-induced diastolic spontaneous Ca^2+ sparks, drug effect” value in test [2] is on record as “failed to suppress Ca^2+ sparks”.
As to `CCCN=C(N)NCCC[C@H](N)C(=O)O.Cl` [L-NPA, Nw-Propyl-L-arginine hydrochloride], the “peak systolic Ca^2+ transient (Fura-2 ratio), inhibitor effect” value in test [1] (setting [5]) is “reduced the Ca^2+ transient”. For the same compound, the “afterload-induced diastolic spontaneous Ca^2+ sparks, drug effect” value in test [2] is listed as “effectively suppressed Ca^2+ sparks”.
Take `CC(=O)N[C@@H](C(=O)O)C(C)(C)SN=O` (racemic) [SNAP]: in the test with CaMKII [3], the “SNAP dependent CaMKII activation in mutant Camui” value is “preserved; also recorded: not secondary to either phosphorylation (T286A) or oxidation (CM/VV)”. Also, the “autonomous CaMKII activation (FCFP/FYFP)” value is reported as “no effect” on CaMKII [4] (50 μM SNAP with 1 mM EGTA, compared to EGTA only) and “significant increase in CaMKII activation; also recorded: Autonomous CaMKII activation was seen” on CaMKII [4] (500 μM SNAP with 1 mM EGTA). Further, the “CaMKII activation relative to Ca^2+/CaM dependent activity” value on CaMKII [4] (500 μM SNAP with EGTA) is given as “about 50 % of Ca^2+/CaM dependent activity”.
